Reference: patent US20220151230A1, “SPECIFICALLY SUBSTITUTED 3-(2-HALOGEN-6-ALKYL-4-PROPINYLPHENYL)-3-PYRROLIN-2-ONES AND TO THE USE THEREOF AS HERBICIDES” (Bayer Aktiengesellschaft, priority 2019, published 2022)

Legend:
ALOMY [1] = assay: Pre-emergence herbicidal effect against ALOMY; type: in vivo, Alopecurus myosuroides; details: 320 g/ha, scored visually after 3 weeks vs untreated controls, 100% = plants have died
Description: (§1) Seeds of monocotyledonous and dicotyledonous weed plants and crop plants are laid out in sandy loam soil in wood-fiber pots and covered with soil. The compounds of the invention, formulated in the form of wettable powders (WP) or as emulsion concentrates (EC), are then applied to the surface of the covering soil as aqueous suspension or emulsion at a water application rate equating to 600 to 800 L/ha with addition of 0.2% wetting agent.
(§2) After the treatment, the pots are placed in a greenhouse and kept under good growth conditions for the trial plants. The damage to the test plants is scored visually after a test period of 3 weeks by comparison with untreated controls (herbicidal activity in percent (%): 100% activity=the plants have died, 0% activity=like control plants).

AVEFA [2] = assay: Pre-emergence herbicidal effect against AVEFA; type: in vivo, Avena fatua; details: 320 g/ha, scored visually after 3 weeks vs untreated controls, 100% = plants have died
Description: as §1, §2

DIGSA [3] = assay: Pre-emergence herbicidal effect against DIGSA; type: in vivo, Digitaria sanguinalis; details: 320 g/ha, scored visually after 3 weeks vs untreated controls, 100% = plants have died
Description: as §1, §2

LOLRI [4] = assay: Pre-emergence herbicidal effect against LOLRI; type: in vivo, Lolium rigidum; details: 320 g/ha, scored visually after 3 weeks vs untreated controls, 100% = plants have died
Description: as §1, §2

SETVI [5] = assay: Pre-emergence herbicidal effect against SETVI; type: in vivo, Setaria viridis; details: 320 g/ha, scored visually after 3 weeks vs untreated controls, 100% = plants have died
Description: as §1, §2

VIOTR = assay: Pre-emergence herbicidal effect against VIOTR; type: in vivo, Viola tricolor; details: 320 g/ha, scored visually after 3 weeks vs untreated controls, 100% = plants have died
Description: as §1, §2

ECHCG [6] = assay: Pre-emergence herbicidal effect against ECHCG; type: in vivo, Echinochloa crus-galli; details: 320 g/ha, scored visually after 3 weeks vs untreated controls, 100% = plants have died
Description: as §1, §2

ALOMY [7] = assay: Post-emergence herbicidal effect against ALOMY; type: in vivo, Alopecurus myosuroides; details: one-leaf stage, 80 g/ha, assessed visually after about 3 weeks vs untreated controls, 100% = plants have died
Protocol: (§3) Seeds of monocotyledonous and dicotyledonous weed and crop plants are laid out in sandy loam soil in wood-fiber pots, covered with soil and cultivated in a greenhouse under good growth conditions. 2 to 3 weeks after sowing, the test plants are treated at the one-leaf stage. The compounds of the invention, formulated in the form of wettable powders (WP) or as emulsion concentrates (EC), are then sprayed onto the green parts of the plants as aqueous suspension or emulsion at a water application rate equating to 600 to 800 l/ha with addition of 0.2% wetting agent. After the test plants have been left to stand in the greenhouse under optimal growth conditions for about 3 weeks, the action of the preparations is assessed visually in comparison to untreated controls (herbicidal action in percent (%): 100% activity=the plants have died, 0% activity=like control plants).

AVEFA [8] = assay: Post-emergence herbicidal effect against AVEFA; type: in vivo, Avena fatua; details: one-leaf stage, 80 g/ha, assessed visually after about 3 weeks vs untreated controls, 100% = plants have died
Protocol: as §3

DIGSA [9] = assay: Post-emergence herbicidal effect against DIGSA; type: in vivo, Digitaria sanguinalis; details: one-leaf stage, 80 g/ha, assessed visually after about 3 weeks vs untreated controls, 100% = plants have died
Protocol: as §3

ECHCG [10] = assay: Post-emergence herbicidal effect against ECHCG; type: in vivo, Echinochloa crus-galli; details: one-leaf stage, 80 g/ha, assessed visually after about 3 weeks vs untreated controls, 100% = plants have died
Protocol: as §3

LOLRI [11] = assay: Post-emergence herbicidal effect against LOLRI; type: in vivo, Lolium rigidum; details: one-leaf stage, 80 g/ha, assessed visually after about 3 weeks vs untreated controls, 100% = plants have died
Protocol: as §3

SETVI [12] = assay: Post-emergence herbicidal effect against SETVI; type: in vivo, Setaria viridis; details: one-leaf stage, 80 g/ha, assessed visually after about 3 weeks vs untreated controls, 100% = plants have died
Protocol: as §3

| SMILES | Pre-emergence action [%] against ALOMY (ALOMY [1]) [%] | Pre-emergence action [%] against AVEFA (AVEFA [2]) [%] | Pre-emergence action [%] against DIGSA (DIGSA [3]) [%] | Pre-emergence action [%] against LOLRI (LOLRI [4]) [%] | Pre-emergence action [%] against SETVI (SETVI [5]) [%] | Pre-emergence action [%] against VIOTR (VIOTR) [%] | Pre-emergence action [%] against ECHCG (ECHCG [6]) [%] | Post-emergence action [%] against ALOMY (ALOMY [7]) [%] | Post-emergence action [%] against AVEFA (AVEFA [8]) [%] | Post-emergence action [%] against DIGSA (DIGSA [9]) [%] | Post-emergence action [%] against ECHCG (ECHCG [10]) [%] | Post-emergence action [%] against LOLRI (LOLRI [11]) [%] | Post-emergence action [%] against SETVI (SETVI [12]) [%] |
| --- | --- | --- | --- | --- | --- | --- | --- | --- | --- | --- | --- | --- | --- |
| CC#Cc1cc(C)c(C2=C(O)C3(CCCC(OCC(C)C)C3)NC2=O)c(Cl)c1 (stereo not shown) [Example D9] | 100 | 100 | 100 | 100 | 100 | 100 | 100 | 100 | 90 | 90 | 100 | 90 | 100 |
| CC#Cc1cc(C)c(C2=C(OC(=O)OCC)C3(CCC(OCCOC)CC3)NC2=O)c(Cl)c1 (stereo not shown) [Example P17] | 100 | 100 | 100 | 100 | 100 | 100 | 100 | 100 | 100 | 100 | 100 | 100 | 100 |
| CC#Cc1cc(C)c(C2=C(O)C3(CCC(OCCOC)CC3)NC2=O)c(Cl)c1 (stereo not shown) [Example E16] | 100 | 100 | 100 | 100 | 100 | 100 | 100 | 100 | 100 | 100 | 100 | 100 | 100 |
| CC#Cc1cc(C)c(C2=C(OC(=O)OC)C3(CCCC(OCC(C)C)C3)NC2=O)c(Cl)c1 (stereo not shown) [Example Q6] | 100 | 90 | 100 | 100 | 100 | – | 100 | 100 | 100 | 100 | 100 | 100 | 100 |
| CC#Cc1cc(Cl)c(C2=C(O)C3(CCC(OC)CC3)NC2=O)c(CC)c1 (stereo not shown) [Example E20] | 100 | 100 | 100 | 90 | 100 | 100 | 100 | – | 90 | 100 | 100 | 80 | 100 |
| CC#Cc1cc(Cl)c(C2=C(OC(=O)OC)C3(CCC(OC)CC3)NC2=O)c(CC)c1 (stereo not shown) [Example P24] | 100 | 100 | 100 | 100 | 100 | – | 90 | 100 | 90 | 90 | 100 | – | 100 |
| CC#Cc1cc(C)c(C2=C(OC(=O)OCC)C3(CCCC(OCC(C)C)C3)NC2=O)c(Cl)c1 (stereo not shown) [Example Q8] | 100 | 100 | 100 | 100 | 100 | – | 100 | 100 | 100 | – | 100 | 90 | 100 |
| CC#Cc1cc(C)c(C2=C(O)C3(CCCC(OCCC)C3)NC2=O)c(Br)c1 (stereo not shown) [Example D5] | 100 | 100 | 100 | 100 | 100 | 100 | 100 | 100 | 100 | 100 | 100 | 100 | 100 |
| CC#Cc1cc(Cl)c(C2=C(O)C3(CCC(OC)CC3)NC2=O)c(C2CC2)c1 (stereo not shown) [Example E24] | 100 | 100 | 100 | 100 | 100 | 100 | 100 | 100 | 100 | – | 100 | 100 | 100 |
| CC#Cc1cc(Cl)c(C2=C(OC(=O)OCC)C3(CCC(OC)CC3)NC2=O)c(C2CC2)c1 (stereo not shown) [Example P33] | 100 | 100 | 100 | 100 | 100 | – | 100 | 100 | 100 | – | 100 | 100 | 100 |
| CC#Cc1cc(Cl)c(C2=C(O)C3(CCC(OCC)CC3)NC2=O)c(CC)c1 (stereo not shown) [Example E12] | 90 | 90 | 100 | 100 | 100 | 100 | 100 | – | – | – | 100 | – | 100 |
| CC#Cc1cc(Br)c(C2=C(O)C3(CCC(OC)CC3)NC2=O)c(C2CC2)c1 (stereo not shown) [Example E26] | 100 | 90 | 100 | 100 | 100 | 90 | 100 | 100 | – | 100 | 100 | 100 | 100 |
| CC#Cc1cc(Br)c(C2=C(O)C3(CCCC(OCCOC)C3)NC2=O)c(C2CC2)c1 (stereo not shown) [Example D11] | 100 | 100 | 100 | 100 | 100 | 100 | 100 | 100 | – | 100 | 100 | 100 | 100 |
| CC#Cc1cc(Br)c(C2=C(O)C3(CCC(OC)CC3)NC2=O)c(CC)c1 (stereo not shown) [Example E25] | – | – | – | – | – | 80 | – | 90 | – | – | – | – | 90 |
